{
  "source": "paper PMC4841555",
  "about": "“Optimization of the All-D Peptide D3 for Aβ Oligomer Elimination” (PLoS ONE, 2016)",
  "key": {"PC12 cells": {"tested_on": "PC12 cells", "assay": "MTT cell viability assay", "type": "cell-based, rat", "details": "5 μM peptide without Aβ, 24 h", "quoted_text": "Rat pheochromocytoma PC12 cells (Leibniz Institute DSMZ, Braunschweig, Germany) were cultivated in DMEM medium supplemented with 10% fetal bovine serum and 5% horse serum. 10,000 cells per well were seeded on collagen-coated 96 well plates (Gibco, Life technology, Carlsberg, USA) and incubated in a 95% humidified atmosphere with 5% CO2 at 37°C for 24 h. […] DB peptide was then added at different concentrations and incubated for further 40 min at 21°C and 600 rpm agitation before addition to the PC12 cells. […] Cell viability was then measured using the Cell proliferation Kit I (MTT) (Roche, Basel, Switzerland) according to the manufacturer’s instruction. The absorbance of the formazan product was determined by measuring at 570 nm after subtracting the absorption at 660 nm. For absorption measurements, a Polarstar Optima plate reader (BMG, Offenburg, Germany) was used. All results were normalized to cells that were treated with buffer only.\nThe cell viability assay was performed using PC12 cells in a MTT test. […] The absorption of buffer treated cells was set to 100% cell viability. […] The Mann-Whitney-U-test was used for statistical analysis. * p < 0.05; ** p < 0.01; *** p < 0.001."}, "Aβ(1–42) monomers": {"target": "T1, Aβ(1–42) monomers (Homo sapiens, UniProt P05067)", "T1 construct": "N-terminally biotinylated Aβ(1–42) monomers were immobilized on streptavidin biosensors; purchased Bachem (Heidelberg, Germany)", "T1 sequence (P05067 672-713 limits assumed)": "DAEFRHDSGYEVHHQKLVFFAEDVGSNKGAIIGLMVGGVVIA", "assay": "Biolayer interferometry (BLI) KD determination", "type": "binding", "details": "N-terminally biotinylated Aβ(1–42) immobilised on streptavidin biosensors, 20 mM sodium phosphate pH 7.4, steady state, Langmuir 1:1 model, mean ± SD of triplicate", "procedure": "BLI experiments were performed using an Octet RED96 instrument (fortéBIO, PALL Life Science, Menlo Park, USA). N-terminally biotinylated Aβ(1–42) was dissolved in HFIP, lyophilized and dissolved in 2 mM aqueous sodium hydroxide (1 mg/ml) in order to destroy any pre-existing aggregates. The Aβ(1–42) solution was neutralized by dilution in running buffer (20 mM sodium phosphate buffer, pH 7.4) to a final concentration of 20 μg/ml and directly immobilized on Super Streptavidin biosensors (SSA) (fortéBIO, PALL Life Science, Menlo Park, USA) to a final depth of 3 nm. Ligand biosensors and reference biosensors were quenched with 20 μg/ml biotin for 7 min.\nFor KD determinations, the binding of a dilution series of DB3 (200, 100, 50, 25, 12.5, 6.25, 3.125 μM) or DBDB3 (20, 10, 5, 2.5, 1.25, 0.625, 0.3125 μM) was detected in parallel to the ligand biosensors and reference biosensors. A separate buffer cycle was used for double referencing. […]\nFig 4 KD determination of DB3 and DB3DB3 to monomeric Aβ using biolayer interferometry (BLI). N-terminally biotinylated Aβ(1–42) monomers were immobilized on streptavidin biosensors and the binding of DB3 and DB3DB3 was detected. Representative double referenced sensorgrams of a dilution series of DB3 (A) and DB3DB3 (B) are shown, including the equilibrium dissociation constants (KD) as means ± SD of data recorded in triplicate. […]"}, "Aβ(1–42)": {"target": "T2, Aβ(1–42) (Homo sapiens, UniProt P05067)", "T2 construct": "Aβ(1–42), N-terminally biotinylated Aβ(1–42) and FITC-Aβ(1–42) were purchased from Bachem; purchased Bachem (Heidelberg, Germany)", "T2 sequence (P05067 672-713 limits assumed)": "as above", "assay": "Thioflavin T (ThT) fibril formation assay", "type": "biochemical", "details": "pH 7.4, 20 μM Aβ(1–42), 20 μM peptide (method: 31 μg/ml), 20 μM ThT, 10 mM sodium phosphate pH 7.4, 37°C, compared after 5 h with Aβ(1–42)-only control; read-out: inhibition of Aβ(1–42) fibril formation (ThT fluorescence)", "procedure": "20 μM Aβ(1–42) was mixed with 20 μM Thioflavin T (ThT) and 31 μg/ml DB3 or DB3DB3 in 10 mM sodium phosphate buffer, pH 7.4. The assay was performed using a non-binding 96 well plate (Greiner Bio-One, Frickenhausen, Germany). ThT fluorescence was measured every 15 min at λex = 440 nm and λem = 490 nm in a temperature-controlled plate reader (Polarstar Optima, BMG, Offenburg, Germany) at 37°C with 1 min agitation before every measurement. Each value was background corrected using the ThT fluorescence of a peptide solution without Aβ(1–42). To investigate the influence of DB1 to DB5 on Aβ fibril formation, a Thioflavin T (ThT) assay was performed. In an aqueous environment the benzothiazole dye has a low fluorescence. […] The emission at 490 nm is directly proportional to the quantity of amyloid fibrils. Fibril formation of Aβ can be followed in real time by measuring the ThT fluorescence. Therefore, the inhibitory effects of the D-peptides DB1 to DB5 and D3 were investigated by co-incubating these peptides with Aβ(1–42) and performing the ThT assay. Fluorescence emission data were compared after 5 h incubation, because after this period the Aβ(1–42) control (without added peptide) reached its fluorescence maximum. […] 20 μM Aβ(1–42) was mixed with 20 μM DB1 to DB5 or 10 μM DB3DB3 and the ThT fluorescence was monitored. Aβ(1–42) without peptide addition was taken as the control. The ThT fluorescence of all samples were compared after 5 h, where the control, Aβ(1–42) only, reached its maximum in fluorescence emission. The Mann-Whitney-U-test was used for statistical analysis. * p < 0.05; ** p < 0.01; *** p < 0.001."}},
  "note": "Non-standard residues stand in square brackets, D forms with d. Residues, ends and D or L forms follow the SMILES beside them.",
  "data": [
    {"smiles": "CC[C@@H](C)[C@@H](NC(=O)[C@H]1CCCN1C(=O)[C@H](N)CCCNC(=N)N)C(=O)N[C@@H](C(=O)N[C@H](CCCNC(=N)N)C(=O)N[C@H](CC(C)C)C(=O)N[C@H](CCCNC(=N)N)C(=O)N[C@@H](C(=O)N[C@H](Cc1c[nH]cn1)C(=O)N[C@H](CCC(N)=O)C(=O)N[C@H](CC(N)=O)C(=O)N[C@H](CCCNC(=N)N)C(N)=O)[C@H](C)O)[C@H](C)O", "note": "[DB3] (H-[dR][dP][dI][dT][dR][dL][dR][dT][dH][dQ][dN][dR]-NH2)", "values": [
      {"measurement": "effect of peptide alone on PC12 cell viability", "setting": "PC12 cells", "value": "not toxic"},
      {"measurement": "Kd", "setting": "Aβ(1–42) monomers", "value": 74.7, "unit": "µM"},
      {"measurement": "inhibition at 31 µg/mL", "setting": "Aβ(1–42)", "value": 80, "unit": "%"}
    ]}
  ]
}
